Data published in patent US9724315B2, “Compounded transdermal pain management” (CMPD Licensing, LLC, priority 2011, dated 2017).
Where a name gives a salt, the structure may show the parent alone. Read-outs that look alike come from different tables or passages of the source.

Settings: for percent permeation of applied dose beyond the stratum corneum: single dose, four drugs in combination; for time of (initial) peak flux after dose application: base composition Lipoderm ActiveMax, four drugs applied in combination; for mean flux of percutaneous absorption: ex vivo human trunk skin
Protocol: An evaluation of the percutaneous absorption of ketamine HCL, gabapentin, clonidine HCL, and baclofen in both Lipoderm® and Lipoderm® ActiveMax™ into human trunk skin, in vitro, using the Franz skin finite dose model was performed. The study was designed to evaluate the percutaneous absorption harmacokinetics of ketamine HCL, gabapentin, clonidine HCL, and baclofen. Absorption was measured in human cadaver skin, in vitro, using the finite dose technique and Franz diffusion cells.
Ketamine HCL 5% w/w, gabapentin 10% w/w, clonidine HCL 0.2% w/w and baclofen 2% w/w, in Lipoderm® and Lipoderm® ActiveMax, were tested on triplicate sections from three different cadaver skin donors for the percutaneous absorption of ketamine HCL, gabapentin, clonidine HCL, and baclofen over a 48-hour dose period. At pre-selected times after dose application, the dermal receptor solution was removed in its entirety, replaced with fresh receptor solution, and an aliquot saved for subsequent analysis. In addition, the epidermis and dermis were recovered and evaluated for drug content. The samples were analyzed for ketamine HCL, gabapentin, clonidine HCL, and baclofen content by High Performance Liquid Chromatography (HPLC)/MS.
The model uses ex vivo animal, human cadaver, or surgical skin mounted in specially designed diffusion cells that allow the skin to be maintained at a temperature and humidity that match typical in vivo conditions. (See Franz, T. J., Percutaneous Absorption: On the Relevance of In Vitro Data. J. Invest. Dermatol, 1975, 64:190-195.)
A finite dose (e.g., 4-7 mg/cm^2) of formulation may be applied to the outer surface of the skin and drug absorption may be measured by monitoring its rate of appearance in the receptor solution bathing the inner surface of the skin. Data defining total absorption, rate of absorption, as well as skin content may be accurately determined in this model. The method has historic precedent for accurately predicting in vivo percutaneous absorption kinetics. (See Franz T. J., The Cadaver Skin Absorption Mode and the Drug Development Process. Pharmacopeial Forum 34(5): 1349-1356, 2008; see also Franz T. J., Lehman P. A., and Raney S., Use of Excised Human Skin to Assess the Bioequivalence of Topical Products. Skin Pharmacol Physiol 22:276-286, 2009.)
During the evaluation, percutaneous adsorption was measured using the in vitro cadaver skin finite dose technique. Human cadaver trunk skin without obvious signs of skin disease, obtained within approximately 24 to 48 hours of death, was used in this study. The skin was dermatomed, cryopreserved, sealed in a water-impermeable bag and stored at approximately −70° C. until the day of the experiment. Prior to use, the skin was thawed in approximately 37° C. water, then rinsed in water to remove any adherent blood or other material from the surface.
Skin from three donors was cut into multiple smaller sections large enough to fit on an approximately nominal 0.8 cm^2 Franz diffusion cells. The dermal chamber was filled to capacity with a reservoir solution of phosphate-buffered isotonic saline (PBS), pH 7.4±0.1, with 0.1% Oleth-20 and 0.008% Gentamicin, and the epidermal cell (chimney) left open to ambient laboratory conditions. All cells were mounted in a diffusion apparatus in which the dermal bathing solution was stirred magnetically at approximately 600 RPM and the skin surface temperature maintained at 32.0°±1.0° C.
To assure the integrity of each skin section, its permeability to tritiated water was determined before application of the test products. (See Franz T. J. and Lehman P. A., The Use of Water Permeability as a Means of Validation for Skin Integrity in In Vitro Percutaneous Absorption Studies. Abst. J. Invest. Dermatol 1990, 94:525.) Following a brief (0.5-1 hour) equilibrium period, ^3H2O (NEN, Boston, Mass., sp. Act. ˜0.5 μCi/mL) was layered across the top of the skin so that the entire exposed surface was covered (approximately 250 to 500 μL).

[1] = Lipoderm ActiveMax base, four drugs simultaneously, intact
[2] = Lipoderm ActiveMax base, about 1 hour after single application
[3] = Lipoderm ActiveMax base, about 3 hours after single application
[4] = Lipoderm ActiveMax base, about 6 hours after single application
[5] = Lipoderm ActiveMax base, about 10 hours after single application
[6] = Lipoderm ActiveMax base, about 18 hours after single application
[7] = Lipoderm ActiveMax base, about 28 hours after single application
[8] = Lipoderm ActiveMax base, about 40 hours after single application

Row | SMILES | penetration of skin from the base composition [1] | percent permeation of applied dose beyond the stratum corneum (Lipoderm ActiveMax base) | percent permeation of applied dose beyond the stratum corneum (Lipoderm base) | time of (initial) peak flux after dose application | mean flux using Lipoderm ActiveMax compared with Lipoderm | minimum mean flux using Lipoderm ActiveMax compared with Lipoderm | penetration of skin from the base composition | mean flux of percutaneous absorption [2] | mean flux of percutaneous absorption [3] | mean flux of percutaneous absorption [4] | mean flux of percutaneous absorption [5] | mean flux of percutaneous absorption [6] | mean flux of percutaneous absorption [7] | mean flux of percutaneous absorption [8] | maximum mean flux (Lipoderm ActiveMax base, single application, 48 hours) | mean flux using Lipoderm ActiveMax compared with Lipoderm (ketamine: most of the 48 hours, from about 2 hours, clonidine: about two to about 40 hours after application) | maximum mean flux using Lipoderm ActiveMax compared with Lipoderm (single application, 48 hours)
1 | NCC(CC(=O)O)c1ccc(Cl)cc1 (stereo not drawn) [baclofen] | penetrate into and through ex vivo human trunk skin | approximately 5.5% | approximately 3.95% | approximately one |  |  |  |  |  |  |  |  |  |  |  |  | 
2 | Clc1cccc(Cl)c1N=C1NCCN1 [clonidine, clonidine HCL] |  |  |  |  | exceed | exceeded | penetrate into and through ex vivo human trunk skin | approximately 0.005 μg/cm^2/hr | approximately 0.007 μg/cm^2/hr | approximately 0.006 μg/cm^2/hr | approximately 0.008 μg/cm^2/hr | approximately 0.008 μg/cm^2/hr | approximately 0.011 μg/cm^2/hr | approximately 0.011 μg/cm^2/hr |  |  | 
3 | NCC1(CC(=O)O)CCCCC1 [gabapentin] | penetrate into and through ex vivo human trunk skin | approximately 2.6% |  | approximately one |  |  |  |  |  |  |  |  |  |  |  |  | 
4 | CNC1(c2ccccc2Cl)CCCCC1=O (stereo not drawn) [ketamine, ketamine HCL] | penetrate into and through ex vivo human trunk skin | approximately 53.4% | approximately 44.8% |  |  |  |  | approximately 0.75 μg/cm^2/hr | approximately 3.0 μg/cm^2/hr | approximately 4.1 μg/cm^2/hr | approximately 4.3 μg/cm^2/hr | approximately 2.4 μg/cm^2/hr | approximately 2.5 μg/cm^2/hr | approximately 1.9 μg/cm^2/hr | approximately 4.3 μg/cm^2/hr | exceed | exceeded
